Test results reported in patent US6884575B2, “Phosphoprotein target for insulin and its antagonists” (Protemix Corporation Limited, priority 2001, dated 2005).
Several values for one entry are separate records, joined by “and”; a condition that tells them apart may be missing. Identical values can stand only once. Ends that are not written are not given here.

Assays:
Male Wistar rats = format: in vivo, rat
Protocol: (§1) All experimental protocols were approved by the Institutional Animal Ethics Committee. Male Wistar rats were injected with dexamethasone (3.1 mg/kg/day, intraperitoneally) for 7 days. The daily weights of rats in both control and dexamethasone-treated groups were monitored. […] Rats were fasted for 18 h prior to each experiment and were killed by cervical dislocation. Blood was obtained by cardiac puncture from anesthetized animals. The mean blood glucose concentration was 5.4±0.2 mM and 10.8±0.6 mM in control and dexamethasone-treated rats, respectively, as measured with a YSI 2300STAT glucose/lactate analyser (Yellow Springs Instruments). […] Insulin and amylin concentrations in the blood of normal and insulin resistant rats were determined as described (17). Rats with insulin resistance induced by chronic high fat feeding were generated as described previously (26).

skeletal muscle = test: In vitro [14C(U)]-D-glucose incorporation assay in skeletal muscle (insulin-stimulated glycogen synthesis); format: cell-based, rat; details: muscle of dexamethasone-treated rats
Protocol: as §1

P20 [1] = test: Phosphorylation of P20 isoforms in 32P-labelled rat EDL muscle strips (2-DE, phosphorimaging); format: cell-based; details: for radioactivity of P20 isoform S1 / radioactivity of P20 isoform S2 / radioactivity of P20 isoform S3: hormones 50 nM, 30 min, n=4
Protocol: Rat extensor digitorum longus (EDL) muscle strips were prepared from 18 h-fasted rats. Dissection and isolation of muscles were carried out under anaesthesia with pentobarbital (5-7 mg/100 g of body weight, intraperitoneally) as described previously (23). Each muscle was split into three ˜1 mm width strips. Muscle strips were pre-incubated in a shaking incubator at 30° C. for 1 h in 5 ml of Dulbecco's Modified Eagle's medium without sodium phosphate. All incubation media were gassed with a mixture of 95% O2 and 5% CO2. The muscle strips were subsequently transferred to similar flasks containing identical medium plus 0.25 mCi/ml [^32P]-orthophosphate and incubated for a further 4 h to equilibrate the internal ATP pool (23, 24). Human insulin, rat amylin, epinephrine or CGRP were then added to the incubation media for 30 min at stated final concentrations. Reactions were terminated by freezing muscle strips in liquid nitrogen immediately after incubation. Muscle strips were then weighed and stored at −80° C. until further analysis.
Muscle strips were homogenized in 2-DE lysis buffer (9M urea, 2% v/v triton X-100, 2% v/v pharmalyte pH 3-10, 200 mM DTT, 8 mM PMSF) for 5 min on ice. The lysates were briefly sonicated and microcentrifuged at 12,000 rpm for 10 min to remove debris. Protein concentrations were determined by the Bradford method and radioactivity was measured by liquid scintillation counting. ^32P-labelled lysates with equivalent amounts of radioactivity were isoelectrically focused on IPG Drystrip pH 4-7 and pH 3-10 Linear gels using a multiphor RII electrophoresis system according to the manufacturer's instructions. Second dimensional SDS-PAGE was carried out using ExcelGel™ precast 12-14% acrylamide gradient gels. After electrophoresis the gels were fixed in 10% glacial acetic acid, 40% ethanol and the proteins visualized by phosphorimaging or autoradiography.
Autoradiography films were scanned and digitised using a Sharp JX-325 scanner, and protein spots detected, quantitated and analysed using the Melanie II software package, ver. 2.2 (Biorad). The detection parameters were: smooth 2, Laplacian threshold 3, partials threshold 1, saturation 90, peakedness increase 100 and minimum perimeter 10. The matching of multiple features to one feature was not allowed. The pixel value is the optical density (OD). Features were calculated as a percentage of the sum of VOL (the feature's volume, i.e., the integration of OD over the feature's area) for all features on the gel. The radioactivity of protein spots was also detected by a phosphorimager and analysed by MacBAS v2.5 software. […] All the results presented are based on at least three independent experiments. Statistical analysis was performed using the t-test (paired two sample).

L6 myotubes = test: 2-deoxyglucose uptake in L6 myotubes; format: cell-based
Protocol: L6 myoblast cells were transfected with pCXN2-GLUT4myc (27), or co-transfected with pCXN2-GLUT4myc and pcDNA.P20, using Lipofectamine Plus reagent according to the manufacturer's instructions. Stable transfectants were selected in medium containing the neomycin analogue G418 at 400 μg/ml. At 10 days after transfection, the clones were selected using sterilised steel rings and expanded separately in the presence of G418. Clones that express P20 and myc-tagged GLUT4 were chosen by western blotting and used for further experiments.
L6 cells stably overexpressing myc-tagged GLUT4, or myc-tagged GLUT4 plus P20, were grown in 6-well plates and differentiated into myotubes in DMEM containing 2% fetal bovine serum for 7 days. The cells were deprived of serum for 16 h prior to experiments. For glucose uptake assays, L6 myotubes were rinsed three times with Krebs-Henseleit buffer (KHB) and incubated in KHB with or without hormones (insulin or insulin plus amylin) at the indicated concentrations for 15 min at 37° C. Carrier-mediated glucose uptake of 10 μM 2-deoxy-D-[^3H] glucose in the above solution was measured for 15 min at 37° C. This was followed by rinsing the cells three times with ice-cold PBS and cell disruption with 0.1 N NaOH. The associated radioactivity was determined by liquid scintillation counting. The protein concentration was measured with a BCA protein quantitation kit (PIERCE). The nonspecific uptake was determined in the presence of 10 μM cytochalasin B and subtracted from each value.

P20 [2] = test: P20 mRNA (northern blot) and protein (western blot) in EDL muscle; format: cell-based, rat; details: dexamethasone-injected rats or strips with 50 nM amylin 30 min
Protocol: About 50 μg proteins from liver, heart, epididymal fat pad, aortic smooth muscle, EDL muscle, soleus muscle tissues and whole blood obtained from 18 h-fasted male Wistar rats were separated by SDS-PAGE and subsequently transferred to nitrocellulose membranes. The membranes were blocked over night at 4° C. and then incubated with rabbit anti-P20 polyclonal antibody (1:1000) for 2 h at room temperature. After incubation with streptavidin-biotinylated horseradish peroxidase-conjugated secondary antibody for another 1 h at room temperature, the proteins immunoreactive to the primary antibody were visualised by enhanced chemiluminescence (ECL) detection according to the manufacturer's instructions.
Total cellular RNA was isolated from EDL muscle of 18 h-fasted control and dexamethasone-treated rats using TRIZOL reagent. 15 μg of RNA from each sample was separated by 1.5% agarose-formaldehyde gel electrophoresis and subsequently transferred to Hybond-N^+ nylon membranes by capillary blotting in 20×SSC. The P20 cDNA probe was labelled with ^32P-dCTP using a random primer labelling system. […] Membranes were then washed, analysed using a phosphorimager and quantitated by MacBAS v2.5 software. For comparison, RNA samples from EDL muscle strips treated with or without 50 nM amylin were also analysed in parallel.

[3] = EDL strips from dexamethasone-treated rats, basal = no hormone
[4] = cells overexpressing both P20 and GLUT4myc vs GLUT4myc alone, n=4
[5] = EDL strips from non-diabetic control rats, mean ± SD

Molecule | mean blood glucose concentration (Male Wistar rats; 3.1 mg/kg/day i.p. for 7 days, 18 h fasted) | fasted basal plasma concentration of amylin (Male Wistar rats; dexamethasone-treated rats) | fasted basal plasma concentration of insulin (Male Wistar rats; dexamethasone-treated rats) | reduction in rates of insulin-stimulated glycogen synthesis (skeletal muscle) | radioactivity of P20 isoform S1 (P20 [1]; [3]) | radioactivity of P20 isoform S2 (P20 [1]; [3]) | radioactivity of P20 isoform S3 (P20 [1]; [3]) | signals of both S2 and S3, fold higher than control rats (P20 [1]; without hormone stimulation, dexamethasone 3.1 mg/kg/day i.p. for 7 days) | decrease of insulin-stimulated glucose uptake (L6 myotubes; GLUT4myc alone, 50 nM insulin plus 50 nM amylin) | increase of the inhibitory effect of amylin by P20 overexpression (L6 myotubes; [4]) | P20 mRNA level and protein abundance (P20 [2]) | decrease of insulin-induced phosphorylation of S1 (P20 [1]; 50 nM insulin plus 50 nM amylin vs 50 nM insulin alone, normal rats) | radioactivity of P20 isoform S1 (P20 [1]; [5]) | radioactivity of P20 isoform S2 (P20 [1]; [5]) | radioactivity of P20 isoform S3 (P20 [1]; [5]) | decrease of insulin-stimulated glucose uptake by P20 overexpression (L6 myotubes; [4]) | increase of 2-deoxyglucose uptake over basal level (L6 myotubes; myotubes overexpressing GLUT4myc alone, 50 nM insulin) | effect on phosphorylation of S2 and S3 induced by epinephrine and CGRP (P20 [1]; 50 nM each, normal rats) | decrease of amylin-evoked phosphorylation of S3 (P20 [1]; 50 nM insulin plus 50 nM amylin vs amylin alone, normal rats) | effect on amylin-evoked phosphorylation of S2 and S3 (P20 [1]; diabetic (dexamethasone-treated) rats)
C[C@@H]1C[C@H]2[C@@H]3CCC4=CC(=O)C=C[C@]4(C)[C@@]3(F)[C@@H](O)C[C@]2(C)[C@@]1(O)C(=O)CO [Dexamethasone, dexamethasone] | 10.8 ± 0.6 mM | 144±17 pmol/1 | 789±94 pmol/1 | over 95% | 439 PSL | 102 PSL | 98.6 PSL | about 5 fold |  |  |  |  |  |  |  |  |  |  |  | 
Amylin: Rat amylin purchased from Bachem; hormone co-secreted with insulin from pancreatic islet β-cells (KCNTATCATQRLANFLVRSSNNLGPVLPPTNVGSNTY; ends and bridges not checked; cysteine pairing not given here; UniProt P12969 38-74, looked up) |  |  |  |  | 181 PSL | 280 PSL | 208 PSL |  | 28% | 24±2% | not changed | 49% | 191 ± 9 PSL | 289 ± 20 PSL | 226 ± 17 PSL |  |  |  |  | 
Insulin: Human insulin was Actrapid from Novo Nordisk |  |  |  |  | 843 PSL | 96.6 PSL | 92 PSL |  |  |  |  |  | 831 ± 40 PSL | 20.3 ± 3.4 PSL | 13.3 ± 1.3 PSL | 41±3% | 2.94±0.31 fold | no effect | 73% and ~74% | little affected
